Measured values reported in US20150258057A1, “FATTY ACID DERIVATIVES FOR TREATING INFECTIOUS DISEASES” (IMARKO RESEARCH S.A., priority 2014, published 2015).

Tests used:
Test in all cases: diffusion method in agar medium (zone of inhibition)
Assay type in all cases: cell-based
Saccharomyces cerevisiae = details: for inhibition of growth (in words): Table 2
Procedure: (§1) The antibiotic activity of zinc and copper soaps (salts of copper caprylate, caprate, caproate and laurate; and salts of zinc caprylate, caprate, caproate and laurate) was measured according to the diffusion method in agar medium, the protocol of which is detailed below.
(§2) This method consists in depositing on inoculated agar culture medium sterile absorbent paper discs impregnated with the antibiotic solution to be examined.
(§3) The activity of an antibiotic is estimated by comparing the inhibition of growth of sensitive microorganisms caused respectively by known concentrations of the antibiotic to be examined and of a reference substance.
(§4) The diluents and culture media used are: • 0.85% physiological saline (AES, reference PHYW-AEB110389), • buffered peptone water (bioMerieux, reference 42111), • Sabouraud glucose agar with chloramphenicol (bioMerieux, reference 42620), • Neutral MRS agar pH=6.4 (AES, reference AEB621756N), • Trypcase soy agar (bioMerieux, reference 41466), • Cetrimide agar (bioMerieux, reference 43565).
(§5) The agar culture medium is poured into a petri dish. Once solidified, the surface of the agar is inoculated in a layer with the selected microorganism. Then fitter paper discs, 6.6 mm in diameter, impregnated with the various solutions to be tested are placed on the surface. The petri dishes are left at room temperature for about 1 hour to allow the substances to diffuse in the agar.
(§6) The cultures are then incubated at 32.5° C.±2.5° C. The agar media and the incubation conditions are suited to the inoculated microorganism.
(§7) The diameter of the zone of inhibition is a function of the concentration, diffusion and activity of the tested substance placed on the filter.

Lactobacillus paracasei = details: for inhibition of growth (in words): Table 2
Procedure: as §1, §2, §3, §4, §5, §6, §7

Bifidobacterium = details: for inhibition of growth (in words): Table 2
Procedure: as §1, §2, §3, §4, §5, §6, §7

[1] = test system: Lactobacillus acidophilus; details: for inhibition of growth (in words): Table 2
Procedure: as §1, §2, §3, §4, §5, §6, §7

[2] = test system: Bacillus coagulans (spores); details: for inhibition of growth (in words): Table 2
Procedure: as §1, §2, §3, §4, §5, §6, §7

Lactobacillus plantarum = details: for inhibition of growth (in words): Table 2
Procedure: as §1, §2, §3, §4, §5, §6, §7

Pseudomonas putida = details: 200 mg in 2 ml of DMSO, disc 6.6 mm
Procedure: as §1, §2, §3, §4, §5, §6, §7

[3] = 200 mg in 2 ml of DMSO, disc 6.6 mm

Row | Structure (SMILES) | inhibition of growth (in words) (Saccharomyces cerevisiae) | inhibition of growth (in words) (Lactobacillus paracasei) | inhibition of growth (in words) (Bifidobacterium) | inhibition of growth (in words) [1] | inhibition of growth (in words) [2] | inhibition of growth (in words) (Lactobacillus plantarum) | Diameter of inhibition (Saccharomyces cerevisiae; [3]) [mm] | Diameter of inhibition (Lactobacillus paracasei; [3]) [mm] | Diameter of inhibition (Bifidobacterium; [3]) [mm] | Diameter of inhibition [1, 3] [mm] | Diameter of inhibition (Pseudomonas putida) [mm] | Diameter of inhibition [2, 3] [mm] | Diameter of inhibition (Lactobacillus plantarum; [3]) [mm]
1 | CCCCCCCCCCCC(=O)OCC(O)CO (stereo not shown) [Glycerol monolaurate] | no inhibition | no inhibition | no inhibition | inhibition | inhibition | no inhibition |  |  |  |  |  |  | 
2 | CCCCCCCC(=O)OCC(O)CO (stereo not shown) [Glyceryl caprylate] | inhibition | inhibition | inhibition | inhibition | inhibition | inhibition |  |  |  |  |  |  | 
3 | CCCCCCCC(=O)Oc1cc(C)ccc1C(C)C [Thymol caprylate] |  |  |  |  |  |  | 7.28 | 7.75 | 9 | 8.2 | 7.86 | 8.5 | 6.9
